Laboratory results from article PMC9781916, “Antipsychotic- and Anxiolytic-like Properties of a Multimodal Compound JJGW08 in Rodents” (International Journal of Molecular Sciences, 2022).

Key:
[1] = system: 5-HT1A receptors; parameters: method as in doi:10.1016/j.molstruc.2022.134585; conditions: cited from earlier work
[2] = system: mice; experiment: Spontaneous locomotor activity in mice; format: in vivo
Procedure: The locomotor activity of mice was measured as previously described using the same apparatus as described in paragraph 4.5. Each mouse was placed individually in a cage for a 30 min habituation period (directly after administration of the studied compound), and then the number of photobeams crossings was recorded (ambulation). Locomotor activity was evaluated every 1 or 5 min for 1–60 min depending on the observation period in behavioral tests (60 min for the hyperlocomotion test, 30 min for the marble burying test, and 1 min for the four-plate test). The cages were disinfected with an odorless disinfection solution after each mouse.

[3] = molecular target: T1, human serotonin 5-HT2A receptor (Homo sapiens, UniProt P28223); format: cell-based
T1 construct: host or cells: CHO-K1
Procedure: (§1) Tested and reference compounds were dissolved in dimethyl sulfoxide (DMSO) at a concentration of 10 mM. Serial dilutions were prepared in a 96-well microplate in assay buffer, and 8 to 10 concentrations were tested. […] The assay was executed according to the previously described protocol [45]. After thawing, cells were transferred to assay buffer (DMEM/HAM’s F12 with 0.1% protease-free BSA) and centrifuged. The cell pellet was resuspended in assay buffer, and coelenterazine h was added at final concentrations of 5 µM. The cell suspension was incubated at 16 °C (or 21 °C), protected from light with constant agitation for 16 h (or 4 h), and then diluted with assay buffer to the concentration of 100,000 cells/mL (or 250,000 cells/mL). After 1 h of incubation, 50 µL of the cell’s suspension was dispensed using automatic injectors built into the radiometric and luminescence plate counter MicroBeta2 LumiJET (PerkinElmer, Waltham, NA, USA) into white opaque 96-well microplates preloaded with test compounds. Immediate light emission generated following calcium mobilization was recorded for 30 s. In antagonist mode, after 25–30 min of incubation, the reference agonist was added to the above assay mix, and light emission was re-recorded. […] IC50 and EC50 values were calculated.

[4] = system: mice; experiment: Marble burying test in mice; format: in vivo
Procedure: Figure 3 The effect of JJGW08 and aripiprazole on the number of buried marbles by mice. Mice were placed individually in cages with a 5 cm bedding layer, where 20 glass balls were placed. The number of buried marbles after 30 min of the test was counted. JJGW08 was administered intraperitoneally (ip) 30 min before the test. The control group received 0.9% NaCl solution (ip) or 1% Tween (ip) for aripiprazole. Values are expressed as means ± SD in the case of one-way ANOVA (aripiprazole) or median with interquartile range in the case of Kruskal–Wallis test (JJGW08), n = 8–10 mice per group. Statistical analysis: one-way ANOVA (Newman–Keuls post hoc), and Kruskal–Wallis test (Dunn post hoc), * p < 0.05, ** p < 0.01, *** p < 0.001.
The test was conducted according to the method described by Broekkamp et al. with minor modifications. Mice were placed individually in plastic cages, identical to their home cages, that contained a layer of bedding and 20 glass balls (1.6 cm in diameter) arranged in a pattern 4 × 5. After 30 min of the experiment, the mice were removed from the cages, and the number of balls buried to at least 2/3 of their size was counted.

[5] = molecular target: T2, human serotonin 5-HT1A receptor (Homo sapiens, UniProt P08908); experiment: Functional assay (aequorin, calcium mobilization) in CHO-K1 cells, 5-HT1A receptor; format: cell-based
T2 construct: host or cells: CHO-K1
T2 sequence (P08908 1-422): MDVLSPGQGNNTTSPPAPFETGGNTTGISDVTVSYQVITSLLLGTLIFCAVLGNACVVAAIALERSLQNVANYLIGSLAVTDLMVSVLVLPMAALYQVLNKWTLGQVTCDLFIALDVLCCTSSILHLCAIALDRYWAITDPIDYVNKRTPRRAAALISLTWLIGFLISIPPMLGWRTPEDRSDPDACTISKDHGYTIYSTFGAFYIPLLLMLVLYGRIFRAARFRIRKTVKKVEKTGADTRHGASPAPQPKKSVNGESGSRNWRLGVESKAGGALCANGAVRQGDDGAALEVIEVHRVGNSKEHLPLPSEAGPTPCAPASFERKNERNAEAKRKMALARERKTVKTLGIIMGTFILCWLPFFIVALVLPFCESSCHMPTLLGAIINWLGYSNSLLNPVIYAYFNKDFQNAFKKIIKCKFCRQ
Procedure: as §1

[6] = system: 5-HT7 receptors; parameters: method as in doi:10.1016/j.molstruc.2022.134585; conditions: cited from earlier work
[7] = system: mice; experiment: Four-plate test in mice; format: in vivo
Procedure: Figure 2 The effect of JJGW08 on the number of punished crossings in the four-plate test. Mice were placed in the apparatus, and after a 15 s adaptation period, each mouse crossing from one plate to another was punished with an electric shock. JJGW08 was administered intraperitoneally (ip) 30 min before the test. The control group received 0.9% NaCl solution (ip). Values are expressed as means ± SD, n = 8–10 mice per group. Statistical analysis: one-way ANOVA (Newman–Keuls post hoc), ** p < 0.01.
The four-plate test was performed on mice according to the previously described method. Mice were placed individually in the four-plate apparatus (Panlab, Barcelona, Spain). After a 15 s habituation period, each mouse that crossed from one plate to another (two limbs on one plate, two on another) was punished by an electric shock (0.8 mA, 0.5 s). The number of punished crossings was calculated during the 60 s of the test.

[8] = system: D2 receptors; parameters: method as in doi:10.1016/j.molstruc.2022.134585; conditions: cited from earlier work
[9] = system: mice; experiment: Rotarod test in mice; format: in vivo; conditions: for Animals That Fell from Rotating Rod: 30 min before test; for Time before Animals Fell: max 60 s, mean ± SD
Procedure: Mice were trained on the rotarod apparatus (May Commat RR0711, Ankara, Turkey; rod diameter: 2 cm) for 3 consecutive days. During each training session, animals were placed for 3 min on the rotating rod (24 rpm, constant speed) with unlimited trials. The experiment was performed 24 h after the last training session. On the test day, mice were injected with studied compounds and, 30 min later, placed on the rotarod. The criterion of motor impairments was the inability of the animal to remain on the rotating rod for 60 s.

[10] = system: mice; experiment: Catalepsy bar test in mice; format: in vivo
Procedure: Catalepsy was assessed using the bar method described by Ueki et al. with minor modifications [48, 49]. The front paws of the mice were placed on a cylindrical metal bar located 4 cm above the tabletop’s surface, while the hind paws remained on the tabletop. The time in which the animal held both paws on the bar was measured at 30, 60, and 120 min after the administration of the tested compound, with a maximum measurement time of 60 s. Each of the measurements consisted of placing the animal’s paws on the bar three times unless the mouse was on it for 60 s; then, no further trial was performed.
The minimum cataleptogenic dose was defined as the lowest dose inducing a mean catalepsy score of ≥1 at 30, 60, or 120 min post-treatment. The tested compound was administered ip at the dose range of 5–20 mg/kg.

[11] = molecular target: T3, human D2 receptor (Homo sapiens, UniProt P14416); experiment: Functional assay (aequorin, calcium mobilization) in CHO-K1 cells, D2 receptor; format: cell-based
T3 construct: host or cells: CHO-K1
Procedure: as §1

[12] = antagonist mode, 100 nM serotonin as reference agonist
[13] = D2, antagonist mode, 30 nM apomorphine as reference agonist

T1 sequence (P28223 whole entry): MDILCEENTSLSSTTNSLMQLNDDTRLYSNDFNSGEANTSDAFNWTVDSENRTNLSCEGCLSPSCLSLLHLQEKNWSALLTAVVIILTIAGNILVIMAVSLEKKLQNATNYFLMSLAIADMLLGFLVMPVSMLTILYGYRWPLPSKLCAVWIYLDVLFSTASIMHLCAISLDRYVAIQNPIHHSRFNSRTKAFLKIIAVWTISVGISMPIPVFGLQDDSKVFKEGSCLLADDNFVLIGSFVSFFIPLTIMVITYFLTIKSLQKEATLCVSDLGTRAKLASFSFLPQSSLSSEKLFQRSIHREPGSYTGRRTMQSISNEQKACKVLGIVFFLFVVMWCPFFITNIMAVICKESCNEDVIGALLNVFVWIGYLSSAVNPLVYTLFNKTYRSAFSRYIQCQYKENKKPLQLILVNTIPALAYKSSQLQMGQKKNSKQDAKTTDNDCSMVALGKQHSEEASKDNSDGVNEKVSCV
T3 sequence (P14416 whole entry): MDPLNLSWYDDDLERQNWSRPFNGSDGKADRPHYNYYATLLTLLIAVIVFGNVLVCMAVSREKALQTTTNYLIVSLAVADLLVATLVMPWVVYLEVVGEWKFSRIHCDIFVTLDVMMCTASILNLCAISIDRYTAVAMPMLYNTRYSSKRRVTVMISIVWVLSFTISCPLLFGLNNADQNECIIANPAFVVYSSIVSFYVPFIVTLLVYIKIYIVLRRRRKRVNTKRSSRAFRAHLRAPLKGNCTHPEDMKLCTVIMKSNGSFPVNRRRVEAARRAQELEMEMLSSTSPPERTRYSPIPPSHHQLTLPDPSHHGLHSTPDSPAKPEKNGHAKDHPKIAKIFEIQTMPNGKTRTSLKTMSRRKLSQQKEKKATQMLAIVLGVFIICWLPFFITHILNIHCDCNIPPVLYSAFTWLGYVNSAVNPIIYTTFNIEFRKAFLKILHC

For `COc1ccccc1N1CCN(CCCCCOc2ccccc2C(N)=O)CC1.Cl` [JJGW08, 2-{5-[4-(2-metoksyfenylo)piperazin-1-ylo]pentoxy}benzamide hydrochloride], the “affinity (in words)” value [1] is given as “high affinity”, the “Number of Crossings” value ([2]; 0.15 mg/kg ip, 1 min session) is given as 38 and the “Number of Crossings” value ([2]; 0.15 mg/kg ip, 30 min session) is given as 547. The “Number of Crossings” value ([2]; 0.15 mg/kg ip, 60 min session) was 1346, the “Number of Crossings” value ([2]; 0.3 mg/kg ip, 1 min session) was 46 and the “Number of Crossings” value ([2]; 0.3 mg/kg ip, 30 min session) was 1027. For the same compound, the “Number of Crossings” value ([2]; 0.3 mg/kg ip, 60 min session) was 1588, the “Number of Crossings” value ([2]; 0.625 mg/kg ip, 1 min session) was 27 and the “Number of Crossings” value ([2]; 0.625 mg/kg ip, 30 min session) was 634. The “Number of Crossings” value ([2]; 0.625 mg/kg ip, 60 min session) was 1671, the “Number of Crossings” value ([2]; 1.25 mg/kg ip, 1 min session) was 22 and the “Number of Crossings” value ([2]; 1.25 mg/kg ip, 30 min session) was 1181. The “Number of Crossings” value ([2]; 1.25 mg/kg ip, 60 min session) was 1769, the “Number of Crossings” value ([2]; 2.5 mg/kg ip, 1 min session) was 19 and the “Number of Crossings” value ([2]; 2.5 mg/kg ip, 30 min session) was 437. For the same compound, the “Number of Crossings” value ([2]; 2.5 mg/kg ip, 60 min session) was 1450, the “effect on locomotor activity (in words)” value ([2]; 0.15–2.5 mg/kg ip, 60-min and 30-min sessions) was “did not affect locomotor activity” and the “Agonist Mode Emax%” value [3] was 21%. For the same compound, the “Agonist Mode pEC50 ± Range” value [3] was 5.9 ± 0.1, the “Antagonist Mode Emax%” value [3] was 5% and the “Antagonist Mode pIC50 ± Range” value [3] was 5.7 ± 0.4. For the same compound, the “antagonistic properties (in words)” value [3] was “very weak antagonistic properties”, the Kb ([3]; read-out: Antagonist Mode Kb) was 290 nM and the “reduction of the number of buried marbles” value ([4]; 1.25 mg/kg ip) was 65%. The “reduction of the number of buried marbles” value ([4]; 2.5 mg/kg ip) was 84%, the “Agonist Mode Emax%” value ([5]; agonist mode) was 9% and the “Antagonist Mode Emax%” value [5, 12] was 1%. For the same compound, the “Antagonist Mode pIC50 ± Range” value [5, 12] was 8.3 ± 0.1, the “affinity (in words)” value [6] was “moderate affinity” and the “increase in the number of punished crossings” value ([7]; 0.3 mg/kg ip) was 54%. For the same compound, the “increase in the number of punished crossings” value ([7]; 0.625 mg/kg ip) was 49%, the “affinity (in words)” value [8] was “high affinity” and the “TD50 relative to the lowest antipsychotic-like dose” value [9] was 121 fold. The “Animals That Fell from Rotating Rod” value ([9]; 10 mg/kg ip) was 2/8, the “Time before Animals Fell” value ([9]; 10 mg/kg ip) was 58 ± 4 s and the “Animals That Fell from Rotating Rod” value ([9]; 20 mg/kg ip) was 4/8. The “Time before Animals Fell” value ([9]; 20 mg/kg ip) was 41 ± 24 s, the “Animals That Fell from Rotating Rod” value ([9]; 30 mg/kg ip) was 6/8 and the “Time before Animals Fell” value ([9]; 30 mg/kg ip) was 20 ± 25 s. For the same compound, the TD50 ([9]; ip, dose at which 50% of the animals could not stay on the rotating rod) was 18 (11–29) mg/kg, the “Mean Score (catalepsy)” value ([10]; 5 mg/kg ip, 30 min) was 0.0 and the “Mean Score (catalepsy)” value ([10]; 5 mg/kg ip, 60 min) was 0.2. For the same compound, the “Mean Score (catalepsy)” value ([10]; 5 mg/kg ip, 120 min) was 0.2, the “Mean Score (catalepsy)” value ([10]; 10 mg/kg ip, 30 min) was 0.7 and the “Mean Score (catalepsy)” value ([10]; 10 mg/kg ip, 60 min) was 0.9. The “Mean Score (catalepsy)” value ([10]; 10 mg/kg ip, 120 min) was 1.4, the “cataleptogenic dose relative to the lowest antipsychotic-like dose” value ([10]; 10 mg/kg vs. 0.15 mg/kg) was 67 fold and the “Mean Score (catalepsy)” value ([10]; 20 mg/kg ip, 30 min) was 2.1. The “Mean Score (catalepsy)” value ([10]; 20 mg/kg ip, 60 min) was 2.1, the “Mean Score (catalepsy)” value ([10]; 20 mg/kg ip, 120 min) was 1.5 and the “minimum (lowest) cataleptogenic dose” value ([10]; ip, lowest dose with mean catalepsy score ≥1 at 30, 60 or 120 min) was 10 mg/kg. For the same compound, the “Agonist Mode Emax%” value ([11]; D2, agonist mode) was 13%, the “Antagonist Mode Emax%” value [11, 13] was 0% and the “Antagonist Mode pIC50 ± Range” value [11, 13] was 7.9 ± 0.0. For the same compound, the Kb ([11]; D2, antagonist mode, Cheng equation) was 2 nM and the “antagonistic properties (in words)” value ([11]; D2 functional assay) was “strong antagonistic properties”.
